Measurements reported in patent US8937048B2, “Anti-angiogenic compounds” (Covx Technologies Ireland, Limited, priority 2008, dated 2015).
Where a SMILES comes first, the peptide text is derived from it. Bridges are numbered along the chain shown (N, C = ends).

Biological target: T1, recombinant human VEGF165 (Homo sapiens, UniProt P15692)
T1 sequence (P15692 27-191 isoform P15692-4): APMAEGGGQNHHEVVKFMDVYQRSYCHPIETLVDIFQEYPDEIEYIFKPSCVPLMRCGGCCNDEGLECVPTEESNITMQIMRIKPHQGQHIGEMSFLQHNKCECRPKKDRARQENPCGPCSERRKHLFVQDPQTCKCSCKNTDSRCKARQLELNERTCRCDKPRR
Experiment: VEGF peptide binding assay (competition ELISA, VEGF165 binding to coated VEGFR2/Fc)
Procedure, shortened: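 VEGFR2/Fc was coated, and peptides (0.128–10,000 nM, N-acetyl, C-amide) were preincubated with 25 ng/ml human VEGF165 and added for 1 h at RT. Bound VEGF was detected with biotinylated anti-VEGF, streptavidin-HRP and TMB at OD450. IC50 came from sigmoid dose-response fits of OD450 versus concentration.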

Structure (SMILES) | IC50 [nM]
CC[C@H](C)[C@@H]1NC(=O)[C@H](CC(=O)O)NC(=O)[C@@H](NC(=O)[C@H](CC(N)=O)NC(=O)[C@@H]2CCCN2C(=O)[C@H](CCC(=O)O)NC(=O)[C@@H](NC(C)=O)C(C)C)CSSC[C@@H](C(=O)N[C@@H](Cc2ccccc2)C(=O)N[C@@H](CCC(=O)O)C(=O)N[C@@H](CCCNC(=N)N)C(=O)N[C@@H](CC(C)C)C(=O)N[C@@H](Cc2ccc(O)cc2)C(=O)NCC(=O)N[C@H](C(=O)N[C@@H](CCC(N)=O)C(N)=O)C(C)C)NC(=O)[C@H](CCC(=O)O)NC(=O)[C@H](Cc2c[nH]c3ccccc23)NC(=O)[C@H](C(C)C)NC(=O)[C@H](Cc2c[nH]c3ccccc23)NC(=O)[C@H](CCSC)NC(=O)[C@H](C(C)C)NC(=O)[C@H](Cc2c[nH]cn2)NC1=O [Compound 74, VEPNCDIHVMWVWECFERLYGVQ] (Ac-VEPNCDIHVMWVWECFERLYGVQ-NH2; disulfide 5-15 (inferred)) | 4
CC[C@H](C)[C@@H]1NC(=O)[C@H](CC(=O)O)NC(=O)[C@@H](NC(=O)[C@H](CC(N)=O)NC(=O)[C@@H]2CCCN2C(=O)[C@H](CCC(=O)O)NC(=O)[C@@H](NC(C)=O)C(C)C)CSSC[C@@H](C(=O)N[C@@H](Cc2ccccc2)C(=O)N[C@@H](CCC(=O)O)C(=O)N[C@@H](CCCNC(=N)N)C(=O)N[C@@H](CC(C)C)C(=O)N[C@@H](CO)C(=O)NCC(=O)NCC(=O)NCC(N)=O)NC(=O)[C@H](CCC(=O)O)NC(=O)[C@H](Cc2c[nH]c3ccccc23)NC(=O)[C@H](C(C)C)NC(=O)[C@H](Cc2c[nH]c3ccccc23)NC(=O)[C@H](CCSC)NC(=O)[C@H](C(C)C)NC(=O)[C@H](Cc2c[nH]cn2)NC1=O [Compound 45, VEPNCDIHVMWVWECFERLSGGG] (Ac-VEPNCDIHVMWVWECFERLSGGG-NH2; disulfide 5-15 (inferred)) | 51
CC[C@H](C)[C@@H]1NC(=O)[C@H](CC(=O)O)NC(=O)[C@@H](NC(=O)[C@H](CC(N)=O)NC(=O)[C@@H]2CCCN2C(=O)[C@H](CCC(=O)O)NC(=O)[C@@H](NC(C)=O)C(C)C)CSSC[C@@H](C(=O)N[C@@H](Cc2ccccc2)C(=O)N[C@@H](CCC(=O)O)C(=O)N[C@@H](CCCNC(=N)N)C(=O)N[C@@H](CC(C)C)C(=O)N[C@@H](Cc2ccc(O)cc2)C(=O)NCC(=O)N2CCC[C@H]2C(=O)N[C@@H](Cc2ccccc2)C(N)=O)NC(=O)[C@H](CCC(=O)O)NC(=O)[C@H](Cc2c[nH]c3ccccc23)NC(=O)[C@H](C(C)C)NC(=O)[C@H](Cc2c[nH]c3ccccc23)NC(=O)[C@H](CCSC)NC(=O)[C@H](C(C)C)NC(=O)[C@H](Cc2c[nH]cn2)NC1=O [Compound 77, VEPNCDIHVMWVWECFERLYGPF] (Ac-VEPNCDIHVMWVWECFERLYGPF-NH2; disulfide 5-15 (inferred)) | 1.8
CC[C@H](C)[C@@H]1NC(=O)[C@H](CC(=O)O)NC(=O)[C@@H](NC(=O)[C@H](CC(N)=O)NC(=O)[C@@H]2CCCN2C(=O)[C@H](CCC(=O)O)NC(=O)[C@@H](NC(C)=O)C(C)C)CSSC[C@@H](C(=O)N[C@@H](Cc2ccccc2)C(=O)N[C@@H](CCC(=O)O)C(=O)N[C@@H](CCCNC(=N)N)C(=O)N[C@@H](CC(C)C)C(=O)N[C@@H](Cc2ccc(O)cc2)C(=O)NCC(=O)NCC(=O)N[C@@H](Cc2c[nH]c3ccccc23)C(N)=O)NC(=O)[C@H](CCC(=O)O)NC(=O)[C@H](Cc2c[nH]c3ccccc23)NC(=O)[C@H](C(C)C)NC(=O)[C@H](Cc2c[nH]c3ccccc23)NC(=O)[C@H](CCSC)NC(=O)[C@H](C(C)C)NC(=O)[C@H](Cc2c[nH]cn2)NC1=O [Compound 35, VEPNCDIHVMWVWECFERLYGGW] (Ac-VEPNCDIHVMWVWECFERLYGGW-NH2; disulfide 5-15 (inferred)) | 325
